Measured values taken from PMC4413193, “3-[4-(1H-Indol-3-yl)-1,3-thiazol-2-yl]-1H-pyrrolo[2,3-b]pyridines, Nortopsentin Analogues with Antiproliferative Activity” (Marine Drugs, 2015).

Assays:
CCRF-CEM = test: NCI-60 in vitro tumor cell growth inhibition, CCRF-CEM (leukemia); type: cell-based; conditions: Homo sapiens, five concentration levels 10^−4–10^−8 M
Procedure: (§1) All the synthesized thiazoles 3a–k were evaluated by the National Cancer Institute (Bethesda MD) for cytotoxicity against the NCI-60 cell line panel using standard protocols. Initially, the selected derivatives 3c,d,g,h,j,k were tested at a single dose (10^−5 M) on the full panel of approximately 60 human tumor cell lines derived from 9 human cancer cell types, that have been grouped in disease sub-panels including leukemia, non-small-cell lung, colon, central nervous system (CNS), melanoma, ovarian, renal, prostate and breast cancers (data not shown). Compounds 3d and 3k were further selected for full evaluation at five concentration levels (10^−4–10^−8 M).
(§2) The antitumor activity of compounds 3d and 3k was given by three parameters for each cell line: GI50 (the molar concentration of the compound that inhibits 50% net cell growth), TGI (the molar concentration of the compound leading to total inhibition of net cell growth), and LC50 (the molar concentration of the compound that induces 50% net cell death). The average values of mean graph midpoint (MG_MID) were calculated for each of these parameters.

HL-60(TB) = test: NCI-60 in vitro tumor cell growth inhibition, HL-60(TB) (leukemia); type: cell-based; conditions: Homo sapiens, five concentration levels 10^−4–10^−8 M
Procedure: as §1, §2

MOLT-4 = test: NCI-60 in vitro tumor cell growth inhibition, MOLT-4 (leukemia); type: cell-based; conditions: Homo sapiens, five concentration levels 10^−4–10^−8 M
Procedure: as §1, §2

EKVK = test: NCI-60 in vitro tumor cell growth inhibition, EKVK (non-small cell lung cancer); type: cell-based; conditions: Homo sapiens, five concentration levels
Procedure: as §1, §2

HOP-62 = test: NCI-60 in vitro tumor cell growth inhibition, HOP-62 (non-small cell lung cancer); type: cell-based; conditions: Homo sapiens, five concentration levels
Procedure: as §1, §2

HOP-92 = test: NCI-60 in vitro tumor cell growth inhibition, HOP-92 (non-small cell lung cancer); type: cell-based; conditions: Homo sapiens, five concentration levels
Procedure: as §1, §2

NCI-H226 = test: NCI-60 in vitro tumor cell growth inhibition, NCI-H226 (non-small cell lung cancer); type: cell-based; conditions: Homo sapiens, five concentration levels
Procedure: as §1, §2

NCI-H23 = test: NCI-60 in vitro tumor cell growth inhibition, NCI-H23 (non-small cell lung cancer); type: cell-based; conditions: Homo sapiens, five concentration levels
Procedure: as §1, §2

NCI-H460 = test: NCI-60 in vitro tumor cell growth inhibition, NCI-H460 (non-small cell lung cancer); type: cell-based; conditions: Homo sapiens, five concentration levels
Procedure: as §1, §2

COLO-205 = test: NCI-60 in vitro tumor cell growth inhibition, COLO-205 (colon cancer); type: cell-based; conditions: Homo sapiens, five concentration levels
Procedure: as §1, §2

HCT-116 = test: NCI-60 in vitro tumor cell growth inhibition, HCT-116 (colon cancer); type: cell-based; conditions: Homo sapiens, five concentration levels
Procedure: as §1, §2

HCT-15 = test: NCI-60 in vitro tumor cell growth inhibition, HCT-15 (colon cancer); type: cell-based; conditions: Homo sapiens, five concentration levels
Procedure: as §1, §2

SF-268 = test: NCI-60 in vitro tumor cell growth inhibition, SF-268 (CNS cancer); type: cell-based; conditions: Homo sapiens, five concentration levels
Procedure: as §1, §2

SF-295 = test: NCI-60 in vitro tumor cell growth inhibition, SF-295 (CNS cancer); type: cell-based; conditions: Homo sapiens, five concentration levels
Procedure: as §1, §2

SF-539 = test: NCI-60 in vitro tumor cell growth inhibition, SF-539 (CNS cancer); type: cell-based; conditions: Homo sapiens, five concentration levels
Procedure: as §1, §2

SNB-19 = test: NCI-60 in vitro tumor cell growth inhibition, SNB-19 (CNS cancer); type: cell-based; conditions: Homo sapiens, five concentration levels
Procedure: as §1, §2

SNB-75 = test: NCI-60 in vitro tumor cell growth inhibition, SNB-75 (CNS cancer); type: cell-based; conditions: Homo sapiens, five concentration levels
Procedure: as §1, §2

MALME-3M = test: NCI-60 in vitro tumor cell growth inhibition, MALME-3M (melanoma); type: cell-based; conditions: Homo sapiens, five concentration levels
Procedure: as §1, §2

M14 = test: NCI-60 in vitro tumor cell growth inhibition, M14 (melanoma); type: cell-based; conditions: Homo sapiens, five concentration levels
Procedure: as §1, §2

SK-MEL-2 = test: NCI-60 in vitro tumor cell growth inhibition, SK-MEL-2 (melanoma); type: cell-based; conditions: Homo sapiens, five concentration levels
Procedure: as §1, §2

SK-MEL-28 = test: NCI-60 in vitro tumor cell growth inhibition, SK-MEL-28 (melanoma); type: cell-based; conditions: Homo sapiens, five concentration levels
Procedure: as §1, §2

SK-MEL-5 = test: NCI-60 in vitro tumor cell growth inhibition, SK-MEL-5 (melanoma); type: cell-based; conditions: Homo sapiens, five concentration levels
Procedure: as §1, §2

UACC-257 = test: NCI-60 in vitro tumor cell growth inhibition, UACC-257 (melanoma); type: cell-based; conditions: Homo sapiens, five concentration levels
Procedure: as §1, §2

UACC-62 = test: NCI-60 in vitro tumor cell growth inhibition, UACC-62 (melanoma); type: cell-based; conditions: Homo sapiens, five concentration levels
Procedure: as §1, §2

OVCAR-4 = test: NCI-60 in vitro tumor cell growth inhibition, OVCAR-4 (ovarian cancer); type: cell-based; conditions: Homo sapiens, five concentration levels
Procedure: as §1, §2

OVCAR-5 = test: NCI-60 in vitro tumor cell growth inhibition, OVCAR-5 (ovarian cancer); type: cell-based; conditions: Homo sapiens, five concentration levels
Procedure: as §1, §2

NCI/ADR-RES = test: NCI-60 in vitro tumor cell growth inhibition, NCI/ADR-RES (ovarian cancer); type: cell-based; conditions: Homo sapiens, five concentration levels
Procedure: as §1, §2

SK-OV-3 = test: NCI-60 in vitro tumor cell growth inhibition, SK-OV-3 (ovarian cancer); type: cell-based; conditions: Homo sapiens, five concentration levels
Procedure: as §1, §2

RXF393 = test: NCI-60 in vitro tumor cell growth inhibition, RXF393 (renal cancer); type: cell-based; conditions: Homo sapiens, RXF 393, five concentration levels
Procedure: as §1, §2

TK-10 = test: NCI-60 in vitro tumor cell growth inhibition, TK-10 (renal cancer); type: cell-based; conditions: Homo sapiens, five concentration levels
Procedure: as §1, §2

UO-31 = test: NCI-60 in vitro tumor cell growth inhibition, UO-31 (renal cancer); type: cell-based; conditions: Homo sapiens, five concentration levels
Procedure: as §1, §2

DU-145 = test: NCI-60 in vitro tumor cell growth inhibition, DU-145 (prostate cancer); type: cell-based; conditions: Homo sapiens, five concentration levels
Procedure: as §1, §2

HepG2 cells = test: Acridine orange/ethidium bromide morphological staining; type: cell-based, human; conditions: HepG2, 24 h, at GI50 concentration
Description: To confirm apoptotic mechanism of cytotoxicity of the nortopsentin analogues, we carried out morphological evaluation of HepG2 cells using AO and EB double staining. […] Moreover, fluorescing orange cells owing to increase of cell permeability to ethidium bromide, cell shrinkage and nuclear fragmentation were also evident as cells in late apoptosis (Figure 3B). Taken together, these findings provided strong evidence that the synthesized nortopsentin analogues induced apoptosis in HepG2 cells.
Acridine orange (AO) stains DNA bright green, allowing visualization of the nuclear chromatin pattern and stains both live and dead cells. Ethidium bromide (EB) stains DNA orange but is excluded by viable cells. Dual staining allows separate enumeration of populations of viable non-apoptotic, viable (early) apoptotic, nonviable (late) apoptotic, and necrotic cells. Live cells appear uniformly green. […] Late apoptotic cells incorporate EB and therefore stain orange, but, in contrast to necrotic cells, the late apoptotic cells show condensed and often fragmented nuclei. Necrotic cells stain orange, but have a nuclear morphology resembling that of viable cells, with no condensed chromatin. Briefly, after HepG2 cells were treated with 3d or 3k compounds for 24 h, the medium was discarded. […]

| SMILES | GI50 (CCRF-CEM) [nM] | GI50 (HL-60(TB)) [nM] | GI50 (MOLT-4) [nM] | GI50 (EKVK) [nM] | GI50 (HOP-62) [nM] | GI50 (HOP-92) [nM] | GI50 (NCI-H226) [nM] | GI50 (NCI-H23) [nM] | GI50 (NCI-H460) [nM] | GI50 (COLO-205) [nM] | GI50 (HCT-116) [nM] | GI50 (HCT-15) [nM] | GI50 (SF-268) [nM] | GI50 (SF-295) [nM] | GI50 (SF-539) [nM] | GI50 (SNB-19) [nM] | GI50 (SNB-75) [nM] | GI50 (MALME-3M) [nM] | GI50 (M14) [nM] | GI50 (SK-MEL-2) [nM] | further results |
| --- | --- | --- | --- | --- | --- | --- | --- | --- | --- | --- | --- | --- | --- | --- | --- | --- | --- | --- | --- | --- | --- |
| Cn1cc(-c2nc(-c3c[nH]c4ccccc34)cs2)c2cccnc21 [Compound 3k, 3-[4-(1H-Indol-3-yl)-1,3-thiazol-2-yl]-1-methyl-1H-pyrrolo[2,3-b]pyridine] | 430 | 320 | 660 | 910 | 930 | 310 | 650 | 670 | 370 | 190 | 390 | 290 | 940 | 310 | 250 | 640 | 140 | 740 | 280 | 410 | GI50 (SK-MEL-28): 760 nM; GI50 (SK-MEL-5): 270 nM; GI50 (UACC-257): 14.2 µM; GI50 (UACC-62): 420 nM; GI50 (OVCAR-4): 0.52 µM; GI50 (OVCAR-5): 2390 nM; GI50 (NCI/ADR-RES): 150 nM; GI50 (SK-OV-3): 520 nM; GI50 (RXF393): 520 nM; GI50 (TK-10): 990 nM; GI50 (UO-31): 690 nM; GI50 (DU-145): 560 nM; morphological evaluation, AO and EB double staining (HepG2 cells): chromatin condensation and nuclear fragmentation |
| Cn1cc(-c2csc(-c3cn(C)c4ncccc34)n2)c2ccccc21 [Compound 3d, 1-Methyl-3-[4-(1-methyl-1H-indol-3-yl)-1,3-thiazol-2-yl]-1H-pyrrolo[2,3-b]pyridine] | 400 | 290 | 670 | 910 | 810 | 350 | 740 | 720 | 300 | 190 | 370 | 170 | 2440 | 240 | 180 | 630 | 160 | 1040 | 270 | 580 | GI50 (SK-MEL-28): 1200 nM; GI50 (SK-MEL-5): 240 nM; GI50 (UACC-257): 13 µM; GI50 (UACC-62): 300 nM; GI50 (OVCAR-4): 7.22 µM; GI50 (OVCAR-5): 1410 nM; GI50 (NCI/ADR-RES): 90 nM; GI50 (SK-OV-3): 570 nM; GI50 (RXF393): 330 nM; GI50 (TK-10): 600 nM; GI50 (UO-31): 900 nM; GI50 (DU-145): 390 nM; morphological evaluation, AO and EB double staining (HepG2 cells): chromatin condensation and nuclear fragmentation |
